Test results reported in publication PMC7990037 (Nature cancer, 2020).
Where a name gives a salt, the structure may show the parent alone.

Key:
[1] = parallel artificial membrane permeability assay; assay type: in vitro ADME; details: PAMPA, compared to high and low permeability controls
[2] = test system: cGAMP exporter(s) in 293T cGAS ENPP1−/− cells; experiment: Intracellular and extracellular cGAMP in 293T cGAS ENPP1−/− cells; details: 24 hours; STF-1084 10 μM; STF-1623 2 μM; QS1 in ENPP1 null cells
primary human PBMCs [3] = experiment: PBMC toxicity; details: 16 h
[4] = target: T1, alkaline phosphatase (ALPL) (Homo sapiens, UniProt P05186); experiment: ALPL inhibition assay; assay type: biochemical
T1 sequence (P05186 18-524): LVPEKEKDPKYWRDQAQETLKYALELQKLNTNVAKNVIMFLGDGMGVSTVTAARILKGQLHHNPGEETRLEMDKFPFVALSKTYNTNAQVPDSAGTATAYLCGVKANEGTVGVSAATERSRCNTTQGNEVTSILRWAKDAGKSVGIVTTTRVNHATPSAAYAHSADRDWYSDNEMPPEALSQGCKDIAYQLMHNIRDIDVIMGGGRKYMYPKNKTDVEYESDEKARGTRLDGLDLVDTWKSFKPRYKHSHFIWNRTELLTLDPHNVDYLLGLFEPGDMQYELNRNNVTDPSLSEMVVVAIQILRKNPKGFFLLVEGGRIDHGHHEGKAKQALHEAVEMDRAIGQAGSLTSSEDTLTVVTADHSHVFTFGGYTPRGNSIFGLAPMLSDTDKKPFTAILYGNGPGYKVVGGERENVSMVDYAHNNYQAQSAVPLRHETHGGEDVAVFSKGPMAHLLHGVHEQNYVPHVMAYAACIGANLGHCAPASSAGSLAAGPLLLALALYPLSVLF

[5] = Pharmacokinetics of STF-1084; details: in vivo
epithelial cells MDCK = experiment: MDCK permeability assay; assay type: in vitro ADME
[6] = Liver microsome stability, mouse; details: liver microsomes
4T1-luc cells = experiment: Extracellular cGAMP measurement in cancer cell lines; assay type: cell-based, mouse
Caco-2 monolayer = experiment: Caco-2 permeability assay; assay type: in vitro ADME; details: Caco-2, apical to basolateral, 2 hours
[7] = Liver microsome stability, human; details: liver microsomes
4T1-luc tumors = experiment: Established orthotopic 4T1-luc tumor growth with IR and cGAMP; assay type: in vivo, mouse
ENPP2 = ENPP2 (Homo sapiens, UniProt Q13822); experiment: ENPP2 inhibition assay; assay type: biochemical
purified mouse ENPP1 = target: T2, purified mouse ENPP1 (Mus musculus, UniProt P06802); experiment: 32P-cGAMP degradation TLC assay; assay type: biochemical
T2 sequence (P06802 85-906 limits assumed): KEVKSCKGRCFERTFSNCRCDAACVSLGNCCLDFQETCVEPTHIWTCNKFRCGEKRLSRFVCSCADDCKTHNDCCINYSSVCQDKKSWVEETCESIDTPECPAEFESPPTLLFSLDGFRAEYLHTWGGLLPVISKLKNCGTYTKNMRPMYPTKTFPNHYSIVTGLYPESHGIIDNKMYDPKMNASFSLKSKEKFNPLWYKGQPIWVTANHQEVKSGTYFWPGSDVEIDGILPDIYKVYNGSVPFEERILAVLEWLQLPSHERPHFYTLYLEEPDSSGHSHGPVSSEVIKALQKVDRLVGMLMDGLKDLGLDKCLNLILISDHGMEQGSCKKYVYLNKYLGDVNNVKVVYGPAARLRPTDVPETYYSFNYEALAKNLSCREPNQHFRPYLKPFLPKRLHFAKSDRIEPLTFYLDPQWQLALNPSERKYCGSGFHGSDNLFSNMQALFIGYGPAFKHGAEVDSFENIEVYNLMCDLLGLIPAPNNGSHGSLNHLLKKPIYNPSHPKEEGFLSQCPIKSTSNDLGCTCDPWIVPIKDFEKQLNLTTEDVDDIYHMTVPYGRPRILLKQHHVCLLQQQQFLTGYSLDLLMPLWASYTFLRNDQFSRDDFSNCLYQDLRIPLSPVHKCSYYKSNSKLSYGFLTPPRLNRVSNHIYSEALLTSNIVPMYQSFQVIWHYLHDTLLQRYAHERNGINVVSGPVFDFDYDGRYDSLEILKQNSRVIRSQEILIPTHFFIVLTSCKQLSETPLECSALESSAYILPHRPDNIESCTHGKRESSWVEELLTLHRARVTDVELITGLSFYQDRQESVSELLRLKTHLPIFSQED

[8] = target: T3, human ENPP1 transfected into 293T cGAS ENPP1−/− cells (Homo sapiens, UniProt P22413); experiment: cGAMP export assay in ENPP1-transfected cells; assay type: cell-based
T3 sequence (P22413 1-925): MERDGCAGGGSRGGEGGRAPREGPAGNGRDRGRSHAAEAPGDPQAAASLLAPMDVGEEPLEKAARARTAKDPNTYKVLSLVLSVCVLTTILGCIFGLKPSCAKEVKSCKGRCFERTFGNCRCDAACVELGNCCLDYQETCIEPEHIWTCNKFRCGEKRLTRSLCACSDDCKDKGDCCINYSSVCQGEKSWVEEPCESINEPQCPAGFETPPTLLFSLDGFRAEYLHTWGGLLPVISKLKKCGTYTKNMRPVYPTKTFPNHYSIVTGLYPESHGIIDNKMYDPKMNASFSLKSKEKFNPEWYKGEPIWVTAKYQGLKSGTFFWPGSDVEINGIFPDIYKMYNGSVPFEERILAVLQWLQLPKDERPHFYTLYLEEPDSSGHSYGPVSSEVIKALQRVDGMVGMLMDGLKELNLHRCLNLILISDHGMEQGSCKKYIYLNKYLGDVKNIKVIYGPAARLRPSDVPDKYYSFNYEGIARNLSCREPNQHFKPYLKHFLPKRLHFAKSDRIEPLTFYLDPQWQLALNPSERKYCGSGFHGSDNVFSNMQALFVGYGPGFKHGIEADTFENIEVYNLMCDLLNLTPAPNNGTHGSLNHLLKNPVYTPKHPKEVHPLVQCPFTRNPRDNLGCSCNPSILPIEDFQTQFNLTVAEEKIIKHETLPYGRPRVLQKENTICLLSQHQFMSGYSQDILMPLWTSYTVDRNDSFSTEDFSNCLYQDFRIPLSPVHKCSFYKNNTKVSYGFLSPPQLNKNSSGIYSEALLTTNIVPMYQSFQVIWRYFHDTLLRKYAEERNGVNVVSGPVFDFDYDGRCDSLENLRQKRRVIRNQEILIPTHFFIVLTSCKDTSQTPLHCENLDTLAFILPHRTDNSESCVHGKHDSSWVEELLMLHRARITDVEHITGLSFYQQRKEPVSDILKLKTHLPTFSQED

Panc02 tumors = experiment: Panc02 syngeneic subcutaneous pancreatic tumor model; assay type: in vivo, mouse; details: subcutaneous pump, 50 mg/kg/day
[9] = Pharmacokinetics of STF-1623 after subcutaneous injection; assay type: in vivo, mouse
primary human PBMCs [10] = details: 200 nM cGAMP electroporated, 16 h; 50 μM STF-1084; 2 μM STF-1623
CD14+ PBMCs = experiment: Stimulation of CD14+ PBMCs with extracellular cGAMP; assay type: cell-based, human; details: soluble extracellular cGAMP, 16 h

## COc1cc2ncnc(N3CCC(CCP(=O)(O)O)CC3)c2cc1OC [STF-1084, dimethyl (2-(1-(6,7-dimethoxyquinazolin-4-yl)piperidin-4-yl)ethyl)phosphonic acid hydrogen bromide salt]
[1]
  permeability category: impermeable
[2]
  effect on intracellular / extracellular cGAMP (cGAMP export): no effect on intracellular cGAMP
Primary human PBMCs [3]; 100 μM
  toxicity to PBMCs: non-toxic
[4]
  Ki: > 100000 nM
[5]
  pharmacokinetics (in words): fast pharmacokinetics
Epithelial cells MDCK
  permeability category: impermeable
[6]
  half-life: > 2.65 h
4T1-luc cells; 4T1-luc, 48 hours, serum-containing media, 50 μM STF-1084
  extracellular cGAMP: 3,000,000 molecules/cell
Caco-2 monolayer
  permeability category: impermeable
[7]
  half-life: > 2.65 h
4T1-luc tumors; IR (20 Gy) + 10 μg cGAMP + 100 μL of 1 mM STF-1084 intratumoral on day 2, 4, 7
  tumor free survival: 1/10
ENPP2
  Ki: 5500 nM

## COc1cccc2c(N3CCC(CCP(=O)(O)O)CC3)ncnc12 [STF-1623, (2-(1-(8-methoxyquinazolin-4-yl)piperidin-4-yl)ethyl)phosphonic acid]
[1]
  permeability category: cell impermeable
[2]
  effect on intracellular / extracellular cGAMP (cGAMP export): affected only extracellular cGAMP concentrations
Purified mouse ENPP1
  Ki: 16 nM
[8]
  IC50: 68 nM
Panc02 tumors; day 0 to 8, IR (20 Gy) on day 1
  tumor growth, combination with IR: synergized with IR to delay tumor growth
Panc02 tumors; day 0 to 8, no IR
  tumor growth, single agent: delayed tumor growth as a single agent
[9]; mouse, plasma, sc, 300 mg/kg
  concentration at 24 h: > 100 nM
[9]; systemic dosing
  pharmacokinetic profile (in words): improved pharmacokinetic profile compared to STF-1084
Primary human PBMCs [3]
  toxicity to PBMCs: not toxic
Epithelial cells MDCK
  permeability category: cell impermeable
[6]
  half-life: > 2.65 h
Caco-2 monolayer
  permeability category: cell impermeable
[7]
  half-life: > 2.65 h
Primary human PBMCs [10]
  cytokine production (IFNB1, CXCL10 mRNA) after cGAMP electroporation: no effect on cytokine production

## Nc1nc2c(ncn2[C@@H]2O[C@@H]3COP(=O)(O)O[C@H]4[C@@H](O)[C@H](n5cnc6c(N)ncnc65)O[C@@H]4COP(=O)(O)O[C@@H]2[C@@H]3O)c(=O)[nH]1 [cGAMP, 2’3’-cyclic GMP-AMP]
CD14+ PBMCs
  cGAMP concentration to which CD14+ PBMCs respond by upregulating IFNB1: submicromolar
4T1-luc tumors; Enpp1−/− 4T1-luc tumors, IR (20 Gy) + three intratumoral injections of 10 μg cGAMP
  tumor free survival: 3/11
4T1-luc tumors; WT 4T1-luc tumors, IR (20 Gy) + three intratumoral injections of 10 μg cGAMP
  survival: no mice inoculated with WT tumors survived

B1: mENPP1: purified soluble recombinant mouse ENPP1, cGAMP hydrolase (protein, UniProt P06802 80-906, looked up)
extracellular domain: KPSCAKEVKSCKGRCFERTFSNCRCDAACVSLGNCCLDFQETCVEPTHIWTCNKFRCGEKRLSRFVCSCADDCKTHNDCCINYSSVCQDKKSWVEETCESIDTPECPAEFESPPTLLFSLDGFRAEYLHTWGGLLPVISKLKNCGTYTKNMRPMYPTKTFPNHYSIVTGLYPESHGIIDNKMYDPKMNASFSLKSKEKFNPLWYKGQPIWVTANHQEVKSGTYFWPGSDVEIDGILPDIYKVYNGSVPFEERILAVLEWLQLPSHERPHFYTLYLEEPDSSGHSHGPVSSEVIKALQKVDRLVGMLMDGLKDLGLDKCLNLILISDHGMEQGSCKKYVYLNKYLGDVNNVKVVYGPAARLRPTDVPETYYSFNYEALAKNLSCREPNQHFRPYLKPFLPKRLHFAKSDRIEPLTFYLDPQWQLALNPSERKYCGSGFHGSDNLFSNMQALFIGYGPAFKHGAEVDSFENIEVYNLMCDLLGLIPAPNNGSHGSLNHLLKKPIYNPSHPKEEGFLSQCPIKSTSNDLGCTCDPWIVPIKDFEKQLNLTTEDVDDIYHMTVPYGRPRILLKQHHVCLLQQQQFLTGYSLDLLMPLWASYTFLRNDQFSRDDFSNCLYQDLRIPLSPVHKCSYYKSNSKLSYGFLTPPRLNRVSNHIYSEALLTSNIVPMYQSFQVIWHYLHDTLLQRYAHERNGINVVSGPVFDFDYDGRYDSLEILKQNSRVIRSQEILIPTHFFIVLTSCKQLSETPLECSALESSAYILPHRPDNIESCTHGKRESSWVEELLTLHRARVTDVELITGLSFYQDRQESVSELLRLKTHLPIFSQED
modifications: extracellular domain
4T1-luc cells; 4T1-luc conditioned media incubated with 10 nM recombinant mENPP1 overnight
  extracellular cGAMP signal: abolished the cGAMP signal
